Experimental data taken from PMC5362750, “Discovery of Potent, Selective, and Orally Bioavailable Small-Molecule Modulators of the Mediator Complex-Associated Kinases CDK8 and CDK19” (Journal of Medicinal Chemistry, 2016).
Values after ≈ are worked out from the molar mass of the structure shown. Like-named read-outs stand apart in the source and are kept apart here.

Experiments:
[1] = In vivo mouse PK; conditions: for Vd / clearance / bioavailability: female, NMRI, plasma; for Vd / clearance: iv; for clearance: Cl; for bioavailability: po, 0.5 mg/kg
[2] = Caco-2 Papp determination; conditions: human, Caco-2, pH 7.4
[3] = Thermodynamic solubility determination; format: physicochemical; conditions: phosphate buffer, pH 7.4, 37 °C, read-out: Solubility Therm.

Row | Structure (SMILES) | Vd ([1]; 0.2 mg/kg) [L/kg] | clearance ([1]; 0.2 mg/kg, 0.2 mg/kg iv) [mL/min/kg] | bioavailability [1] [%] | Papp A→B at 2 h, 1 μM [2] [×10⁻⁶ cm/s] | efflux ratio at 2 h, 1 μM [2] | solubility at 24 h ([3]; pH 7.4, TFA salt) [µg/mL] | solubility at 24 h ([3]; pH 7.4, free base) [µg/mL] | Cl ([1]; 0.2 mg/kg iv, 0.2 mg/kg) [mL/min/kg]
1 | O=C1NCCC12CCN(c1c(Cl)cncc1-c1ccc(-c3cnn(CCO)c3)cc1)CC2 [Compound 17] | 1.61 | 47.2 | 7 | 22.7 | 19.5 | 112 | – | –
2 | CC(C)(O)Cn1cc(-c2ccc(-c3cncc(Cl)c3N3CCC4(CCNC4=O)CC3)cc2)cn1 [Compound 18] | 0.8 | 16.5 | – | 32 | 26.1 | – | 33 (≈ 68.7 µM) | –
3 | CN(C)CCn1cc(-c2ccc(-c3cncc(Cl)c3N3CCC4(CCNC4=O)CC3)cc2)cn1 [Compound 19] | – | – | – | 25.4 | 12.4 | – | – | –
4 | O=C1NCCC12CCN(c1c(Cl)cncc1-c1ccc(-c3cnn(CCN4CCCC4)c3)cc1)CC2 [Compound 20] | – | – | – | 30.4 | 5.3 | – | – | –
5 | Cc1nc(-c2ccc(-c3cncc(Cl)c3N3CCC4(CCNC4=O)CC3)cc2)cn1C [Compound 21] | 6.41 | 278 | 12 | 18.8 | – | 33 | – | –
6 | CN1c2ccc(-c3cncc(Cl)c3N3CCC4(CCNC4=O)CC3)cc2CS1(=O)=O [Compound 23, 8-(3-Chloro-5-(1-methyl-2,2-dioxido-1,3-dihydrobenzo[c]isothiazol-5-yl)pyridin-4-yl)-2,8-diazaspiro[4.5]decan-1-one] | – | – | – | 29 | 3.3 | – | – | –
7 | CN1c2cc(-c3cncc(Cl)c3N3CCC4(CCNC4=O)CC3)ccc2CS1(=O)=O [Compound 24] | – | – | – | 33.8 | 11 | – | – | –
8 | Nc1n[nH]c2cc(-c3cncc(Cl)c3N3CCC4(CCNC4=O)CC3)ccc12 [Compound 25, 8-(3-(3-Amino-1H-indazol-6-yl)-5-chloropyridin-4-yl)-2,8-diazaspiro[4.5]decan-1-one] | 1.21 | 29.2 | 5 | 0.03 | – | 540 | – | –
9 | Cn1cc(-c2ccc(-c3cncc(Cl)c3N3CCC4(CC3)CNC(=O)O4)cc2)cn1 [Compound 41] | – | – | – | 30.6 | 2.4 | – | – | –
10 | CN1c2ccc(-c3cncc(Cl)c3N3CCC4(CC3)CNC(=O)O4)cc2CS1(=O)=O [Compound 42, 8-(3-Chloro-5-(1-methyl-2,2-dioxido-1,3-dihydrobenzo[c]isothiazol-5-yl)pyridin-4-yl)-1-oxa-3,8-diazaspiro[4.5]decan-2-one] | 1.34 | 47.7 | – | 16.6 | – | 53 | – | –
11 | Cn1cc(-c2ccc(-c3cncc(Cl)c3N3CCC4(CC3)NCNC4=O)cc2)cn1 [Compound 44] | 1.12 | 51.2 | 20 | 19.1 | – | – | – | –
12 | CN1c2ccc(-c3cncc(Cl)c3N3CCC4(CC3)NC(=O)NC4=O)cc2CS1(=O)=O [Compound 46] | – | – | – | 3.3 | 126 | – | – | –
13 | CN(C)CCC1(C#N)CCN(c2c(Cl)cncc2-c2ccc3c(c2)CS(=O)(=O)N3C)CC1 [Compound 51] | – | – | – | 35.3 | – | – | – | –

The next lines start with the values.

Row | Vd ([1]; 0.2 mg/kg) [L/kg] | clearance ([1]; 0.2 mg/kg, 0.2 mg/kg iv) [mL/min/kg] | bioavailability [1] [%] | Papp A→B at 2 h, 1 μM [2] [×10⁻⁶ cm/s] | efflux ratio at 2 h, 1 μM [2] | solubility at 24 h ([3]; pH 7.4, TFA salt) [µg/mL] | solubility at 24 h ([3]; pH 7.4, free base) [µg/mL] | Cl ([1]; 0.2 mg/kg iv, 0.2 mg/kg) [mL/min/kg] | Structure (SMILES)
14 | – | – | – | 34.3 | 1.7 | – | – | – | COCCN1CCCC12CCN(c1c(Cl)cncc1-c1ccc3c(c1)CS(=O)(=O)N3C)CC2 [Compound 54, 5-(5-Chloro-4-(1-(2-methoxyethyl)-1,8-diazaspiro[4.5]decan-8-yl)pyridin-3-yl)-1-methyl-1,3-dihydrobenzo[c]isothiazole 2,2-Dioxide]
15 | 1.86 | 132 | 5 | 32.9 | 3 | – | – | 132 | CN1c2ccc(-c3cncc(F)c3N3CCC4(CCNC4=O)CC3)cc2CS1(=O)=O [Compound 61, 8-(3-Fluoro-5-(1-methyl-2,2-dioxido-1,3-dihydrobenzo[c]isothiazol-5-yl)pyridin-4-yl)-2,8-diazaspiro[4.5]decan-1-one]
16 | 2.67 | 87.5 | 27 | 16 | 6.5 | – | – | – | CN1c2ccc(-c3cncc(F)c3N3CCC4(CC3)CNC(=O)O4)cc2CS1(=O)=O [Compound 63, 8-(3-Fluoro-5-(1-methyl-2,2-dioxido-1,3-dihydrobenzo[c]isothiazol-5-yl)pyridin-4-yl)-1-oxa-3,8-diazaspiro[4.5]decan-2-one]
17 | 0.74 | 11.2 | 61 | 37 | 4.9 | – | – | – | Cn1cc(-c2ccc(-c3cnc(N)c(Cl)c3N3CCC4(CCNC4=O)CC3)cc2)cn1 [Compound 85]
18 | 1.22 | 17.8 | 7 | 25.4 | 42.7 | – | – | – | CC(C)(O)Cn1cc(-c2ccc(-c3cnc(N)c(Cl)c3N3CCC4(CCNC4=O)CC3)cc2)cn1 [Compound 86, 8-(2-Amino-3-chloro-5-(4-(1-(2-hydroxy-2-methylpropyl)-1H-pyrazol-4-yl)phenyl)pyridin-4-yl)-2,8-diazaspiro[4.5]decan-1-one]
19 | – | – | – | 19.3 | 5.8 | – | – | – | CN1c2ccc(-c3cnc(N)c(Cl)c3N3CCC4(CCNC4=O)CC3)cc2CS1(=O)=O [Compound 88]
20 | – | – | – | 9.6 | – | < 1 | – | – | Cn1cc(-c2ccc(-c3cnc(N)c(Cl)c3N3CCC4(CC3)NC(=O)NC4=O)cc2)cn1 [Compound 91]
21 | 0.86 | 21.3 | 37 | 23.9 | 29.5 | – | – | – | CN1c2ccc(-c3cnc(N)c(F)c3N3CCC4(CCNC4=O)CC3)cc2CS1(=O)=O [Compound 92, 8-(2-Amino-3-fluoro-5-(1-methyl-2,2-dioxido-1,3-dihydrobenzo[c]isothiazol-5-yl)pyridin-4-yl)-2,8-diazaspiro[4.5]decan-1-one]
22 | – | – | – | 4 | 81 | – | – | – | CN1c2ccc(-c3cnc(N)c(F)c3N3CCC4(CC3)CNC(=O)O4)cc2CS1(=O)=O [Compound 93]
23 | – | – | – | 20.7 | – | – | – | – | Cn1cc(-c2ccc(-c3cnc(N)c(C(F)(F)F)c3N3CCC4(CCNC4=O)CC3)cc2)cn1 [Compound 94]
24 | – | – | – | 28.8 | – | – | – | – | CNc1n[nH]c2cc(-c3cncc(Cl)c3N3CCC4(CCNC4=O)CC3)ccc12 [Compound 100, 8-(3-Chloro-5-(3-(methylamino)-1H-indazol-6-yl)pyridin-4-yl)-2,8-diazaspiro[4.5]decan-1-one]
25 | – | – | – | 39 | – | – | – | – | Cn1nc(N)c2ccc(-c3cncc(Cl)c3N3CCC4(CCNC4=O)CC3)cc21 [Compound 101, 8-(3-(3-Amino-1-methyl-1H-indazol-6-yl)-5-chloropyridin-4-yl)-2,8-diazaspiro[4.5]decan-1-one 2,2,2-Trifluoroacetate]
26 | – | – | – | 45.9 | – | – | – | – | CN(C)c1nn(C)c2cc(-c3cncc(Cl)c3N3CCC4(CCNC4=O)CC3)ccc12 [Compound 102, 8-(3-Chloro-5-(3-(dimethylamino)-1-methyl-1H-indazol-6-yl)pyridin-4-yl)-2,8-diazaspiro[4.5]decan-1-one]
27 | – | – | – | 30.6 | – | – | – | – | CN1CNC(=O)C12CCN(c1c(Cl)cncc1-c1ccc(-c3cnn(C)c3)cc1)CC2 [Compound 104]
28 | – | – | – | 37.4 | – | – | – | – | CC(C)n1cc(-c2ccc(-c3cnc(N)c(Cl)c3N3CCC4(CCNC4=O)CC3)cc2)cn1 [Compound 108]
29 | – | – | – | 33.4 | – | – | – | – | Cn1ncc2cc(-c3cnc(N)c(Cl)c3N3CCC4(CC3)CNC(=O)O4)ccc21 [Compound 110]
